According to patent US20240245677A1, “SELECTED COMPOUNDS FOR TARGETED DEGRADATION OF BRD9” (C4 THERAPEUTICS, INC., priority 2021, published 2024):

What was measured:
[1] = Compression and ball-milling experiments; type: physicochemical
Protocol: Feasibility of formulation processes was evaluated with compression and ball-milling experiments. […] However, the hydrate Form N is sensitive to pressure.

[2] = Variable humidity XRPD (VH-XRPD) experiments; type: physicochemical; conditions: listed as Pattern N
Protocol: Based on DVS results, variable humidity XRPD was conducted for Pattern A at different humidity conditions, including 40%, 70%, 90%, 70%, 40%, 20%, 0%, 40% RH conditions.
Based on DVS results, variable humidity XRPD was conducted for Pattern N, at different humidity conditions, including 40%, 70%, 90%, 70%, 40%, 20%, 0%, 40% RH conditions.

[3] = Bulk stability study (1 week stress conditions; drying)
[4] = Hygroscopicity by DVS at 25° C.; type: physicochemical; conditions: DVS 25° C., from 40% RH to 80% RH
Protocol: Hygroscopicity of Form A and Form N was investigated by DVS at 25° C. […] Form A converted to Form K after the DVS test. Form K is a metastable hydrate. It reverted back to Form A after exposure to ambient condition.
Hygroscopicity of the free base Pattern A* and the urea cocrystal Form P were evaluated by DVS at 25° C.

[5] = Competitive equilibration experiment at 25° C.; type: physicochemical; conditions: 7 days
Protocol: Competitive equilibration experiments were conducted at 25° C. to investigate the thermodynamically stable anhydrate. 5 mg of Pattern G, and 5 mg of Pattern H, were added to about 200 μL of saturated solution in selected solvents. Obtained suspension was stirred at 25° C. for 7 days. Obtained suspensions were centrifuged and obtained solids were analyzed by XRPD immediately.

[6] = Mouse Hepatocyte Stability Assay; type: in vitro ADME; conditions: CD-1, cryopreserved hepatocytes
Protocol: The metabolic stability of Compound 1 was evaluated using cryopreserved hepatocytes from mice, rats, dogs, cynomolgus monkeys, and humans.
50 μL of 1 mM intermediate solutions for each test compound was prepared by adding 5 μL of 10 mM stock solution to 45 μL of a 1:1 mixture of water and acetonitrile. A 2 μM working stocks for each test compound were prepared in incubation media, InvitroGRO™ KHB (Bio IVT, Westbury, NY, USA), by adding 2 μL of 1 mM intermediate stock to 998 μL of incubation media.
To thaw the hepatocytes, InvitroGRO™ HT thawing medium (BioIVT, Westbury, NY, USA) was prewarmed to 37° C., and 48 mL of warmed thawing medium was transferred to a sterile 50 mL conical tube. The hepatocyte vial was removed from the liquid nitrogen Dewar, and gently thawed in a water bath at 37° C. for 1-2 minutes, then the contents of the vial were emptied into a conical tube with prewarmed InvitroGRO HT medium. 1 mL of prewarmed InvitroGRO HT medium was added to each emptied hepatocyte vial to resuspend any remaining cells, and the contents were pipetted into the hepatocyte suspension. The tube containing the hepatocyte suspension was centrifuged at 50*g for 5 minutes. The supernatant was removed carefully, and the remaining pellet was resuspended by adding 1 mL of incubation media, InvitroGRO KHB, and gently shaking until there were no clumps.
Cell viability was determined using the trypan blue method. 25 μL of hepatocyte cell suspension was added to a trypan blue (TB) solution (containing 775 μL InvitroGRO KHB and 200 μL of Trypan Blue). Cell count was taken using a hemacytometer.
For mouse hepatocytes, 200 μL of hepatocytes (0.8×10^6 cells/mL) were added to the wells of a 48 well plate (Catalog No. 92048, TPP Techno Plastic Products AG, Trasadingen, Switzerland) and pre-incubated for 30 minutes at 37° C. For rat, dog, monkey, […], 200 μL of hepatocytes (2×10^6 cells/mL) were added to the wells of a 48 well plate (Catalog No. 92048, TPP Techno Plastic Products AG, Trasadingen, Switzerland) and pre-incubated for 30 minutes at 37° C.
For all species of hepatocytes, once the pre-incubation period was complete, 200 μL of 2 μM working stock of test compound was added to the wells of the plate, and the plate was vortexed on a Vibramax™ 100 (P/N 544-21200-00, Heidolph Instruments GmbH & Co. KG, Schwabach, Germany) at 500 rpm in a 37° C. CO2 incubator (Model No. 51026280, ThermoFisher Scientific, Waltham, MA, USA). At each time point of 0, 15, 30, 60, 90, and 120 minutes, 50 μL of incubation mixture was precipitated with 200 μL of acetonitrile containing internal standard.
At the end of the experiment, the samples were centrifuged at 4000 rpm for 10 minutes. The supernatant was collected and diluted with an equal amount of water, and vortexed for 5 minutes at 900 rpm in MixMate® (Model No. 5353, Eppendorf SE, Hamburg, Germany).
The supernatant samples were submitted for LC-MS/MS analysis.
Calculations of the results included the following: […]

**Q.** For `COc1cc(-c2cn(C)c(=O)c(C)c2C)cc(OC)c1CN1CC[C@H](N2CCN(c3ccc(N[C@H]4CCC(=O)NC4=O)cc3F)CC2)C(F)(F)C1` [Form N], which “behavior under ball milling” value ([1]; ball milling for 5 min) is on record?
**A.** The value was “no obvious crystallinity decrease”.

**Q.** What about the behavior under compression ([1]; compression, 2 to 10 MPa) of the same molecule?
**A.** Its behavior under compression is “crystallinity decrease even compressed under 2 MPa”.

**Q.** What about the XRPD ([2]; 0% RH) of the same molecule?
**A.** The XRPD was “Pattern N”.

**Q.** And the XRPD ([2]; 20% RH)?
**A.** Its XRPD is “Pattern N”.

**Q.** What about the XRPD ([2]; 40% RH (after 90% RH, falling)) of the same molecule?
**A.** Its XRPD is “Pattern N”.

**Q.** And the XRPD ([2]; 40% RH (first step))?
**A.** Its XRPD is “Pattern N”.

**Q.** What about the XRPD ([2]; 40% RH (last step, after 0% RH)) of the same molecule?
**A.** The XRPD was “Pattern N”.

**Q.** And the XRPD ([2]; 70% RH (after 90% RH))?
**A.** The XRPD was “Pattern N”.

**Q.** What about the XRPD ([2]; 70% RH (humidity rising)) of the same molecule?
**A.** The XRPD was “Pattern N”.

**Q.** What about the XRPD ([2]; 90% RH) of the same molecule?
**A.** Its XRPD is “Pattern N”.

**Q.** What about the “physical and chemical stability” value ([3]; 25° C./92% RH open vial, 40° C./75% RH open vial or 60° C. closed vial, 1 week) of the same molecule?
**A.** Its value is “physically and chemically stable”.

**Q.** What about the “form change and degradation after drying” value ([3]; 50° C. under vacuum for 2 days) of the same molecule?
**A.** Its value is “No form change and no degradation”.

**Q.** What about the water uptake [4] of the same molecule?
**A.** The water uptake was “about 1.0%”.

**Q.** Which “XRPD after competitive equilibration at 25° C.” value (from here on “XRPD … at 25° C.”) ([5]; Acetone) does the source give for `COc1cc(-c2cn(C)c(=O)c(C)c2C)cc(OC)c1CN1CC[C@H](N2CCN(c3ccc(N[C@H]4CCC(=O)NC4=O)cc3F)CC2)C(F)(F)C1` [Pattern G and Pattern H] here?
**A.** The value was “Pattern B”.

**Q.** What about the “XRPD … at 25° C.” value ([5]; Ethanol) of the same molecule?
**A.** Its value is “Low crystallinity, difficult to differentiate”.

**Q.** What about the “XRPD … at 25° C.” value ([5]; Ethyl acetate) of the same molecule?
**A.** Its value is “Pattern F”.

**Q.** And the “XRPD … at 25° C.” value ([5]; Toluene)?
**A.** The value was “Pattern G”.

**Q.** Which half-life at 1 µM [6] does the source give for `CC(C)NCC(O)COc1cccc2ccccc12` (stereo not drawn) [Propranolol, reference compound] here?
**A.** Its half-life at 1 µM is 16.3 min.
